{
  "source": "paper PMC9537177",
  "about": "“A VEGFR targeting peptide-drug conjugate (PDC) suppresses tumor angiogenesis in a TACE model for hepatocellular carcinoma therapy” (Cell Death Discovery, 2022)",
  "key": {"[1]": {"tested_on": "VX2 liver tumor", "assay": "VX2 rabbit liver tumor model with TAE/TACE: tumor growth, necrosis, apoptosis, proliferation, angiogenesis", "format": "in vivo, New Zealand white rabbits", "description": "New Zealand white rabbits (2.5-3 kg) were purchased from the Laboratory Animal Center of Tongji Medical College of Huazhong University of Science and Technology (Wuhan, China). All the animal experimental procedures were performed in accordance with the National Institutes of Health Guidelines for the Care and Use of Laboratory Animals and the protocol was approved by the Ethics Committee of Tongji Medical College, Huazhong University of Science and Technology. Blinding was not possible in most animal experiments. The rabbit VX2 liver tumor model was established according to the method reported by Qian K et al.. […] The acquisition parameters of the sequence are as follows: […], TR 2750 ms, TE 65 ms, the field of view 120 mm × 120 mm, Slice thickness 3 mm in the transverse plane, matrix 152 × 152. The multi-vane technique was used to reduce artifacts and improve image quality, acquisition time 3 min […]; […] Seven days after TACE procedure, tumor size was evaluated again by MR scan and the tumor volume was calculated by formula: V = a * b^2/2 (a, long diameter; b, short diameter). And tumor growth rate was calculated by formula: […] Finally, the VX2 rabbits were sacrificed and the tumor tissues were harvested for biochemical analysis and histopathological examination. […] The IHC staining procedures were performed as previously described. Briefly, the sections were blocked in 3% H2O2 for 25 min and then incubated with goat serum for 15 min. Subsequently, the sections were first washed and incubated with anti-VEGF (1:200, Abcam, USA), and anti-CD31 (1:20; Abcam, USA) overnight at 4 °C, and then incubated with second antibody (Abcam, USA) at 37 °C for 50 min. Next, the sections were stained with 3, 3'-diaminobenzidine (DAB, Service bio, Wuhan […] Biotechnology Co., Ltd., China) for 6 min and rinsed and stained in hematoxylin for 30 s. The sections were then dehydrated in gradient alcohol and sealed in neutral resins. VEGF expression was assessed by semiquantitative IHC based on staining intensity and density, the staining intensity was scored as 0 (negative), 1 (weak), 2 (moderate), and 3 (strong), while the staining density was scored on the basis of the percentage of positively stained cells: 0 (0%), 1 (1-25%), 2 (26-50%), 3 (51-75%), and 4 (76-100%). The total VEGF IHC score was calculated by multiplying the intensity score by the density score. Microvessel density (MVD) was calculated according to the method developed by Weidner et al."}, "[2]": {"tested_on": "HUVEC cells", "assay": "Wound-healing assay of HUVEC cells", "format": "cell-based, human", "conditions": "10 μM, 24 h", "description": "Wound-healing assay was performed according to the protocols reported by Liang et al.. Briefly, HUVEC cells were plated into 12-well plate and grown to create a confluent monolayer. The monolayer was grazed in a straight line to create a “scratch” with a pipette tip. Markings were created close to the scratch to be used as reference points. Then cells were treated with different peptides for 24 h at 37 °C. Images were collected with a Leica DFC480 camera on a phase-contrast microscope equipped with a 10 × objective at room temperature. The free area of the wound was measured by image software. Supplementary Figure S1. Wound healing assay to detect the cell migration influenced by different peptides."}, "[3]": {"tested_on": "Huh 7 cells", "conditions": "10 μM, 24 h, Annexin V-PI FACS", "description": "Viable cells, early apoptotic cells, necrotic cells, late apoptotic cells were represented by Q4, Q3, Q2 and Q1 respectively.\n(§1) The apoptosis assay was performed according to the manufacturer’s instructions using an Annexin V: Fluorescein Isothiocyanate (FITC) Apoptosis Detection Kit I (BD Pharmingen™). Briefly, Huh 7 or HUVEC cells were seeded in a 12-well plate and allowed to grow for 24 h in medium with 10% FBS. Then, the cells were treated with the different peptides in medium with 5% FBS for 24 h’ incubation. The cells were harvested with 0.25% trypsin/EDTA, washed twice with PBS and suspended in 1 × binding buffer. The suspended cells were treated with FITC-labeled Annexin V and propidium iodide (PI) as the protocol indicated and then analyzed by flow cytometry to determine the apoptotic cells. The cells with positive fluorescence intensity signals for both FITC and PI were used for the apoptotic cell count."}, "[4]": {"assay": "Therapeutic safety in VX2 tumor-bearing rabbits (organ H&E, serum biochemistry)", "method": "Twenty-four VX2 tumor-burdened rabbits were evenly divided into four groups. After fasting for 12 h, the rabbits were anesthetized by intravenous injection of pentobarbital sodium solution (2 wt.%, 30 mg/kg). The rabbit’s right femoral artery was dissected and a 4-F Cobra catheter (Cook, Inc., Bloomington, Indiana) was inserted into the celiac artery, hepatic arteriography was then performed under the guidance of digital subtraction angiography (DSA), and a 2.7-F coaxial microcatheter (Terumo, Tokyo, Japan) was super-selectively inserted into the tumor donor branch subsequently. The emulsion of drugs and lipiodol were slowly injected into the tumor-feeding artery through the above microcatheter at a speed of 0.5 mL/min. […] After obtaining all DSA images, the sheaths and catheters were removed.\nSeven days after treatment, the liver tumors, hearts, lungs, kidneys and spleens were harvested and fixed in 4% phosphate-buffered paraformaldehyde, the specimens were embedded in paraffin blocks and cut into 5‐μm‐thick sections. Following the manufacturer’s guidelines, the sections were stained with haematoxylin and eosin (H&E) for the evaluation of organ toxicity and tumor necrosis, Ki-67 staining and transfer-mediated dUTP nick end labeling (TUNEL) technique were used to detect tumor proliferation and apoptosis, respectively.\nBlood samples were collected before treatment and at 1, 3, 7 days after treatment. The blood samples were stood at room temperature for 30 min, and the serum was obtained by centrifugation (room temperature, 8000 rpm, 10 min) for assessment of alanine aminotransferase (ALT), aspartate aminotransferase (AST), total bilirubin (TBIL) and creatinine (CREA). The assays were performed using the commercially ready-made kits following the manufacturers’ instructions."}, "[5]": {"tested_on": "HUVEC cells", "assay": "Annexin V-FITC/PI cell apoptosis assay, HUVEC", "format": "cell-based, human", "conditions": "10 μM, 24 h, Annexin V-PI FACS", "description": "The improved proapoptotic activity of QR-KLU was further confirmed by Annexin V-PI staining through FACS. Viable cells, early apoptotic cells, necrotic cells, late apoptotic cells were represented by Q4, Q3, Q2 and Q1 respectively. […] Besides, QR-KLU induced cell apoptosis in a dose-dependent manner. […] The percentage of apoptotic cells in KLU peptide at 20 μM were about 25% in both Huh7 cells and HUVEC cells.\nas §1\nSupplementary Figure S2. Cell apoptosis of HUVEC induced by different peptides. HUVEC cells were treated with PBS, 80μM QR, 20μM KLU, 5μM QR-KLU, 10μM QR-KLU for 24 hours before detection by FACS."}, "[6]": {"tested_on": "HT29 cells with low expression of VEGFR", "assay": "Cell competitive binding (cell affinity) assay by FACS, HT29", "format": "cell-based, human", "conditions": "QR-KLU 0-20 μM with 10 μM FAM-QR", "description": "(§2) We then performed cell competitive binding assay to evaluate the affinity of the peptide conjugate to endothelial cell HUVEC with high expression of VEGFR [29]. FAM-labeled VEGF125−136 peptide QR was cultured with HUVEC cells for 4 h and then cellular penetration ability was tested by FACS. […] To further confirm our result, we then used HT29 cells to repeat this assay as HT29 cells are reported with low expression of VEGFR [29].\n(§3) Fig. 2 The cell affinity of QR-KLU with different cell lines. Cell penetration of peptide QR-KLU with HUVEC cells (A) and HT29 cells (B). The cells were respectively treated with PBS, 10 μM FAM-QR + 0 μM QR-KLU, 10 μM FAM-QR + 2.5 μM QR-KLU, 10 μM FAM-QR + 5 μM QR-KLU, 10 μM FAM-QR + 10 μM QR-KLU, 10 μM FAM-QR + 20 μM QR-KLU. C The median fluorescence of HUVEC and HT29 cells treated with different peptides as mention in Fig. 2A, B.\n(§4) The affinity ability of peptide QR-KLU to endothelial cells was determined by fluorescence-activated cell sorting (FACS) analysis. Briefly, the HUVEC cells were incubated on a 24-well plate for 24 h in growth medium. Then peptide QR-KLU in medium with different concentrations (0 μM, 2.5 μM, 5 μM, 10 μM, 20 μM) were respectively incubated with HUVEC cells for 30 min at 37 °C. Next, carboxy-fluorescein (FAM)-labelled-QR peptide (10 μM) were added to each well for 4 h at 37 °C. […] FACS was performed and the results were analyzed using FlowJo."}, "[7]": {"tested_on": "HUVEC cells with high expression of VEGFR", "assay": "Cell competitive binding (cell affinity) assay by FACS, HUVEC", "format": "cell-based, human", "conditions": "QR-KLU 0, 2.5, 5, 10, 20 μM pre-incubated 30 min at 37 °C, then 10 μM FAM-QR for 4 h", "description": "as §2, §3, §4"}, "[8]": {"conditions": "7 days after treatment, versus NS group"}},
  "note": "“Also recorded” adds a separate entry of the source. Square brackets hold non-standard residues; d marks the D form. Peptide text beside a SMILES is read from it. Aib = CC(C)(N)C(=O)O; Ahx = NCCCCCC(=O)O",
  "data": [
    {"smiles": "CC(=O)N[C@@H](CCC(N)=O)C(=O)N[C@@H](CCCCN)C(=O)N[C@@H](CCCNC(=N)N)C(=O)N[C@@H](CCCCN)C(=O)N[C@@H](CCCNC(=N)N)C(=O)N[C@@H](CCCCN)C(=O)N[C@@H](CCCCN)C(=O)N[C@@H](CO)C(=O)N[C@@H](CCCNC(=N)N)C(=O)N[C@@H](Cc1ccc(O)cc1)C(=O)N[C@@H](CCCCN)C(=O)N[C@@H](CO)C(=O)NCCCCCC(=O)N[C@@H](CCCCN)C(=O)N[C@@H](CC(C)C)C(=O)NC(C)(C)C(=O)N[C@@H](CCCCN)C(=O)N[C@@H](CC(C)C)C(=O)NC(C)(C)C(=O)N[C@@H](CCCCN)C(=O)N[C@@H](CCCCN)C(=O)N[C@@H](CC(C)C)C(=O)NC(C)(C)C(=O)N[C@@H](CCCCN)C(=O)N[C@@H](CC(C)C)C(=O)NC(C)(C)C(=O)N[C@@H](CCCCN)C(N)=O", "note": "[QR-KLU] (Ac-QKRKRKKSRYKS[Ahx]KL[Aib]KL[Aib]KKL[Aib]KL[Aib]K-NH2; N-terminus and C-terminus assumed)", "values": [
      {"measurement": "mean tumor volume at 7 days after TAE procedure", "setting": "[1]; 0.5 mL lipiodol emulsion into tumor-feeding artery, DOX 2 mg/kg, KLU 4 mg/kg, QR-KLU 4 mg/kg, MR images, 24 rabbits evenly in four groups, mean ± SD", "value": "1008.5 ± 370.7", "unit": "mm^3"},
      {"measurement": "tumor growth rate (V7/V0 × 100%)", "setting": "[1]; 7 days after TAE, DOX 2 mg/kg, KLU 4 mg/kg, QR-KLU 4 mg/kg in lipiodol, NS group 276.4%", "value": "significantly lower than that of the NS group; also recorded: significantly lower than the other three groups"},
      {"measurement": "VEGF IHC score in tumor", "setting": "[1]; 7 days after embolization, IHC intensity × density score, compared with NS group", "value": "significantly reduced the expression of CD31 and VEGF"},
      {"measurement": "microvessel density (MVD), CD31 IHC", "setting": "[1]; 7 days after embolization, mean of three ×200 fields, compared with NS group", "value": "reduce the MVD in the tumor"},
      {"measurement": "mean proportion of apoptotic cells in tumor (TUNEL)", "setting": "[1]; [8]", "value": "significantly higher than that in NS group; also recorded: highest"},
      {"measurement": "mean proportion of proliferating cells in tumor (Ki67)", "setting": "[1]; [8]", "value": "significantly lower than that in NS group; also recorded: lowest"},
      {"measurement": "mean tumor volume one day before TAE procedure", "setting": "[1]; baseline, MR images, V = a*b^2/2, VX2 rabbits, 24 rabbits evenly in four groups, mean ± SD", "value": "899.7 ± 394.0", "unit": "mm^3"},
      {"measurement": "cell migration of HUVEC (wound epithelial gap)", "setting": "[2]", "value": "the wound epithelial gap was unchanged or even bigger"},
      {"measurement": "apoptosis rate in Huh 7 cells", "setting": "[3]", "value": "over 60%"},
      {"measurement": "H&E staining of hearts, lungs, kidneys and spleens", "setting": "[4]; 7 days after TACE, 4 mg/kg in lipiodol", "value": "no apparent tissue injury"},
      {"measurement": "liver and renal toxicity (ALT, AST, TBIL, CREA in serum)", "setting": "[4]; before and 1, 3, 7 days after treatment, 4 mg/kg in lipiodol via TAE", "value": "no significant liver or renal toxicity"},
      {"measurement": "apoptosis rate in HUVEC cells", "setting": "[5]", "value": "over 40%"},
      {"measurement": "effect of QR-KLU on cell penetration of FAM-labeled peptide QR in HT29", "setting": "[6]", "value": "could not obviously affect cell penetration ability"},
      {"measurement": "effect of QR-KLU on cell penetration of FAM-labeled peptide QR in HUVEC", "setting": "[7]", "value": "decreased cell penetration ability"}
    ]}
  ]
}
